Two compounds from publication PMC10953011, “Oxygen‐insensitive nitroreductase E. coli NfsA, but not NfsB, is inhibited by fumarate” (Proteins, 2022) can be followed below.

SMILES strings stand for the structures.

As a reminder, the Ki is a measure of affinity in units of concentration, obtained from inhibition or displacement. A higher Ki goes with lower affinity.

For test [1], the target named is T1, NfsA (Escherichia coli, UniProt P17117).
T1 sequence (P17117 1-240): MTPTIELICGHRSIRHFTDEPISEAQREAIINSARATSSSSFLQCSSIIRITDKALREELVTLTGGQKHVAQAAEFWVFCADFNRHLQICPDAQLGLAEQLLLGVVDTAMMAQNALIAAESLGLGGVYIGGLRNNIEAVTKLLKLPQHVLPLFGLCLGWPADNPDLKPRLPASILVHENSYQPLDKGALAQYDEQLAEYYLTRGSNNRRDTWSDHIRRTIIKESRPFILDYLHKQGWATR
Description: steady-state inhibition kinetics with nitrofurazone and NADPH, […] nm. Type of test: biochemical. Further details: untagged full-length.

In test [2] the target is T1, NfsA. Description: X-ray crystal structure ([…] Å); steady-state inhibition kinetics with nitrofurazone and NADPH. Type of test: biochemical. Set-up: untagged full-length, 240 residues, dimer.

In test [1], `O=C(O)CCC(=O)O` [succinate] returned an inhibitory constant (Ki) of 4300 ± 600 µM.
`O=C(O)/C=C/C(=O)O` [fumarate] had a Ki in test [2] of 145 ± 28 µM.
